Data: PMC6154636, “Using UPLC-MS/MS for Characterization of Active Components in Extracts of Yupingfeng and Application to a Comparative Pharmacokinetic Study in Rat Plasma after Oral Administration” (Molecules : A Journal of Synthetic Chemistry and Natural …, 2017)
Read-outs that look alike come from different tables or passages of the source.

What was measured:
[1] = Stability of the seven analytes in rat plasma (method validation); type: in vitro ADME; details: n = 6; for Short-Term RSD: auto-sampler vials for 24 h; for Freeze-Thaw RSD: three freeze–thaw cycles; for Long-Term RSD: −20 °C for 30 days
Method: Stability The short-term and long-term stability of seven analytes in rat plasma in auto-sampler vials for 24 h, at −20 °C for 30 days and after three freeze–thaw cycles was assessed, and also carried out in six replicates samples at three QC levels (low, medium and high).
Stability: The analytes would be considered stable when the accuracy bias was within ±15% of the nominal concentrations (or ±20% for LLOQ).

[2] = Pharmacokinetic study in rats after oral administration of mix standard solution (UPLC-QqQ-MS of plasma); type: in vivo, Sprague-Dawley rats
Method: Then, 300 μL acetonitrile for protein precipitation were added. For the incurred samples, 10 µL of methanol (volume of the corresponding standard solution for calibration curve) and 90 μL of samples with 300 μL acetonitrile were mixed, the mixture was then vortex-extracted for 2 min, and centrifuged for 10 min at 15,000 rpm (4 °C). The supernatant was transferred to a new tube and evaporated under a gentle stream of nitrogen to dryness. The residue was reconstituted with 80 μL of initial mobile phase, vortex-mixed for 1 min and centrifuged at 15,000 rpm for 5 min.
The Chromatographic UPLC-QqQ-MS procedure of pharmacokinetics study was performed using ACQUITY UPLC (Waters, Milford, MA, USA) and SCIEX SelexION Triple Quad™ 5500 System (AB Sciex, Framingham, MA, USA) equipped with a heated electrospray ionization source (ESI) interface, separation was achieved using a Waters BEH C18 column (2.1 mm × 100 mm, 1.7 μm) which was protected by an online filter, the mobile phase was at a flow rate of 0.5 mL/min, consisted of aqueous solvent A: water–acetic acid (1000:1, v/v) and organic phase solvent B: acetonitrile. A 10-min binary gradient elution was performed for the separation, and the consecutive program was as follows: an isocratic elution of 5% solvent B to equilibrate the column, then followed by a linear gradient elution: 0–2.5 min, 5–27% B; 2.5–3.1 min, 27–36% B; 3.1–4.1 min, 36–57% B; 4.1–4.8 min, 57–84% B; 4.8–5.8 min, 84–100% B; 5.8–7 min, 100–100% B; 7–8 min, 100–5% B; and the re-equilibration time of gradient elution was 2 min. The column and auto-sampler tray temperature were maintained constantly at 45 °C and 4 °C, respectively. The injection volume was 10 μL. The electrospray ionization source was operated in positive mode. Quantitation was performed by schedule multiple reactions monitoring (sMRM). In the positive mode, the tandem mass spectrometry (MS/MS) typical instrumental conditions were: ion spray voltage 5.5 kV, ion source gas 150 psi, ion source gas 250 psi, temperature 500 °C, and curtain gas 38 psi. Data acquisition and processing were performed using Analyst Software (AB Sciex, Corp., Framingham, MA, USA).
The developed UPLC-QqQ-MS method was applied to a pharmacokinetic study of seven analytes in rat plasma. Male healthy adult Sprague-Dawley rats (n = 6, 200 ± 20 g body weight) were supplied by Shanghai Jiao Tong University Laboratory Animal Centre (Shanghai, China). Animals were acclimatized in an environmental controlled breeding room with standard laboratory food and water for one week prior to the experiments. All the rats were fasted for 12 h, with free access to water prior to the experiments, animal welfare and experimental procedures conformed to guidance for the care and use of laboratory animals, similarly the ethical regulations of SJTU.
Then immediately centrifuged at 4000 rpm for 5 minutes, plasma was transferred into another via and stored at −80 °C until assay.
The plasma concentrations of seven analytes at different time points are described as the mean ± s.d. The concentration versus time curve was plotted. Compartmental model was chosen to calculate all the related pharmacokinetic parameters including Cmax (ng/mL), Tmax (h), AUC0−∞ (ng·h/mL), CL/F (L/h.kg), T1/2α (h) and T1/2β (h) were calculated by Kinetica4.4 software (Thermo Fisher Scientific™, Corp., Waltham, MA, USA), and performed with GraphPad 6 (GraphPad Software, Inc., La Jolla, CA, USA). We also use the area under the plasma concentration–time curve from zero to infinity (AUC0−∞) as the weighting factor to make an integrated pharmacokinetic curve. […]

[3] = cited from earlier work
[4] = high QC level (80.0 or 150 ng/mL)
[5] = low QC level (0.25, 0.50 or 1.50 ng/mL)
[6] = medium QC level (1.50, 3.50 or 15.0 ng/mL)
[7] = male, Sprague-Dawley, rat, in vivo, po, 10 mg/kg
[8] = after oral administration (10 mg/kg)
[9] = male, Sprague-Dawley, rat, in vivo, po, 10 mg/kg, rats, oral 10 mg/kg mix standard in 0.5% CMC-Na, n = 6, Mean ± S.D., read-out: Tmax
[10] = male, Sprague-Dawley, rat, in vivo, Table 8, mean, after oral administration (10 mg/kg), read-out: AUC0−∞
[11] = male, Sprague-Dawley, rat, in vivo, rats, oral 10 mg/kg mix standard in 0.5% CMC-Na, n = 6, Mean ± S.D., compartmental model, read-out: Cmax
[12] = male, Sprague-Dawley, rat, in vivo, rats, oral 10 mg/kg mix standard in 0.5% CMC-Na, n = 6, Mean ± S.D., read-out: CL/F (converted)
[13] = male, Sprague-Dawley, rat, in vivo, rats, oral 10 mg/kg mix standard in 0.5% CMC-Na, n = 6, Mean ± S.D., read-out: T1/2β (converted)
[14] = rats, oral 10 mg/kg mix standard in 0.5% CMC-Na, n = 6, Mean ± S.D., 10 mg/kg

| Short-Term RSD [1, 4] [%] | Short-Term RSD [1, 5] [%] | Short-Term RSD [1, 6] [%] | Freeze-Thaw RSD [1, 4] [%] | Freeze-Thaw RSD [1, 5] [%] | Freeze-Thaw RSD [1, 6] [%] | Long-Term RSD [1, 4] [%] | Long-Term RSD [1, 5] [%] | Long-Term RSD [1, 6] [%] | AUC(0-inf) [2, 7] [ng·h/mL] | CL/F [2, 7] [mL/min/kg] | Cmax [2, 7] [ng/mL] | T1/2α [2, 7] [h] | Tmax [2, 7] [h] | half-life [2, 7] [h] | weighting coefficient ωj (AUC0−∞ of single analyte / total AUC0−∞ of analytes) [2, 7] | SMILES | weighting coefficient ωj (AUC0−∞ of single analyte / total AUC0−∞ of analytes) [2, 8] | Tmax [2, 9] [h] | AUC(0-inf) [2, 10] [ng·h/mL] | Cmax [2, 11] [ng/mL] | also measured |
| --- | --- | --- | --- | --- | --- | --- | --- | --- | --- | --- | --- | --- | --- | --- | --- | --- | --- | --- | --- | --- | --- |
| 1.02 | 3.89 | 1.35 | 8.53 | 2.40 | 1.40 | 2.41 | 3.99 | 7.52 | 60.8 | 2810 | 50 ± 7.6 | 0.16 ± 0.01 | 0.2 ± 0.01 | 2.4 ± 1.1 | 0.085 | COc1c2c(cc3oc(C)cc(=O)c13)OC(C(C)(C)OC1OC(CO)C(O)C(O)C1O)C2 [4-O-beta-D-glucosyl-5-O-methylvisamminol] |  |  |  |  |  |
|  |  |  |  |  |  |  |  |  | 17.9 | 9820 | 8.4 ± 2.4 | 0.04 ± 0.01 | 0.1 ± 0.1 | 4.1 ± 1.56 | 0.025 | C=C1CCC[C@]2(C)C[C@@H]3OC(=O)C(C)=C3C[C@@H]12 [Atractylenolide II] |  |  |  |  | biliary excretion [3]: rapid; intestinal absorption [3]: poor |
| 4.38 | 4.18 | 2.20 | 12.92 | 8.29 | 6.08 | 12.67 | 4.13 | 10.35 | 11.5 | 8330 | 6.3 ± 2.5 | 0.27 ± 0.10 | 0.3 ± 0.1 | 1.09 ± 0.36 | 0.016 | COc1ccc(-c2coc3cc(O)ccc3c2=O)cc1O [Calycosin] |  |  |  |  |  |
| 1.01 | 2.75 | 1.40 | 9.64 | 4.77 | 3.73 | 1.46 | 3.70 | 3.11 |  |  |  |  |  |  |  | Cc1cc(=O)c2c(O)c3c(cc2o1)OC(C)(C)[C@@H](O[C@@H]1O[C@H](CO)[C@@H](O)[C@H](O)[C@H]1O)C3 [Sec-O-Glucosylhamaudol] |  |  |  |  | T1/2α ([2]; rat, in vivo, po, 10 mg/kg): 1.10 ± 0.26 h; T1/2β ([2]; rat, in vivo, po, 10 mg/kg): 2.4 ± 1.2 min; weighting coefficient ωj (AUC0−∞ of single analyte / total AUC0−∞ of analytes) ([2]; rat, in vivo, po, 10 mg/kg): 0.379 |

| SMILES | Short-Term RSD [1, 4] [%] | Short-Term RSD [1, 5] [%] | Short-Term RSD [1, 6] [%] | Freeze-Thaw RSD [1, 4] [%] | Freeze-Thaw RSD [1, 5] [%] | Freeze-Thaw RSD [1, 6] [%] | Long-Term RSD [1, 4] [%] | Long-Term RSD [1, 5] [%] | Long-Term RSD [1, 6] [%] | AUC(0-inf) [2, 7] [ng·h/mL] | CL/F [2, 7] [mL/min/kg] | Cmax [2, 7] [ng/mL] | T1/2α [2, 7] [h] | Tmax [2, 7] [h] | half-life [2, 7] [h] | weighting coefficient ωj (AUC0−∞ of single analyte / total AUC0−∞ of analytes) [2, 7] | weighting coefficient ωj (AUC0−∞ of single analyte / total AUC0−∞ of analytes) [2, 8] | Tmax [2, 9] [h] | AUC(0-inf) [2, 10] [ng·h/mL] | Cmax [2, 11] [ng/mL] | also measured |
| --- | --- | --- | --- | --- | --- | --- | --- | --- | --- | --- | --- | --- | --- | --- | --- | --- | --- | --- | --- | --- | --- |
| CC(C)(O)C1CCC(C)(C2C(O)CC3(C)C4CC(OC5OC(CO)C(O)C(O)C5O)C5C(C)(C)C(OC6OCC(O)C(O)C6O)CCC56CC46CCC23C)O1 (stereo not shown) [Astragaloside] | 1.45 | 7.06 | 1.06 | 11.51 | 3.65 | 3.20 | 2.80 | 3.36 | 8.08 |  |  |  |  |  |  |  | 0.269 | 2.8 ± 0.1 | 191 | 26.6 ± 4 | bioavailability ([3]; stated as a known characteristic, no reference given): low; CL/F [2, 12]: 832 mL/min/kg; half-life [2, 13]: 2.06 ± 0.04 h; T1/2α ([2]; rats, oral 10 mg/kg mix standard in 0.5% CMC-Na, n = 6, Mean ± S.D.): 1.98 ± 0.11 h |
| COc1ccc(-c2coc3cc(O)ccc3c2=O)cc1 [Formononetin] | 2.82 | 2.35 | 2.33 | 10.58 | 10.06 | 7.09 | 6.22 | 5.96 | 7.75 |  |  |  |  |  |  |  | 0.159 | 1.65 | 113 | 13.9 ± 4.2 | CL/F [2, 12]: 1530 mL/min/kg; half-life [2, 13]: 4.1 ± 2.6 h; T1/2α [2, 14]: 1.77 ± 0.81 h; Tmax [2, 14]: 1.6 ± 0.9 h; T1/2α ([2]; rats, oral 10 mg/kg mix standard in 0.5% CMC-Na, n = 6, Mean ± S.D., listed as formononetin, 10 mg/kg): 1.77 h |
